Assays:
Assay in all cases: NCI SRB growth inhibition (single dose 10 µM / five-dose)
Type in all cases: cell-based, human
NCI/ADR-RES = settings: Homo sapiens; for inhibition at 10 µM: NCI/ADR-RES (Ovarian cancer), read-out: GI%
How it was run: (§1)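 Growth inhibition is derived from seven absorbance readings per agent (Tz, C and five Ti). Where a parameter level is not reached or is exceeded, the value is given as greater or less than the highest or lowest concentration tested.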

HCT-15 = settings: Homo sapiens; for inhibition at 10 µM: HCT-15 (Colon cancer), read-out: GI%
How it was run: as §1

SF-295 = settings: Homo sapiens; for inhibition at 10 µM: SF-295 (CNS cancer), read-out: GI%
How it was run: as §1

MDA-MB-435 = settings: Homo sapiens; for inhibition at 10 µM: MDA-MB-435 (Melanoma), read-out: GI%
How it was run: as §1

HT29 = settings: Homo sapiens, HT-29; for inhibition at 10 µM: HT29 (Colon cancer), read-out: GI%
How it was run: as §1

CCRF-CEM = settings: Homo sapiens; for inhibition at 10 µM: CCRF-CEM (Leukemia), read-out: GI%
How it was run: as §1

SNB-75 = settings: Homo sapiens; for inhibition at 10 µM: SNB-75 (CNS cancer), read-out: GI%
How it was run: as §1

SN12C = settings: Homo sapiens
How it was run: as §1

SK-OV-3 = settings: Homo sapiens
How it was run: as §1

NCI-H226 = settings: Homo sapiens; for inhibition at 10 µM: NCI-H226 (Non-small cell lung cancer), read-out: GI%
How it was run: as §1

HOP-62 = settings: Homo sapiens
How it was run: as §1

RXF 393 = settings: Homo sapiens; for inhibition at 10 µM: RXF 393 (Renal cancer), read-out: GI%
How it was run: as §1

SK-MEL-5 = settings: Homo sapiens; for inhibition at 10 µM: SK-MEL-5 (Melanoma), read-out: GI%
How it was run: as §1

IGROV1 = settings: Homo sapiens, IGROV-1; for inhibition at 10 µM: IGROV1 (Ovarian cancer), read-out: GI%
How it was run: as §1

PC-3 = settings: Homo sapiens; PC-3 (Prostate cancer), 10 µM; read-out: GI%
How it was run: as §1

A498 = settings: Homo sapiens; for inhibition at 10 µM: A498 (Renal cancer), read-out: GI%
How it was run: as §1

MDA-MB-231/ATCC = settings: Homo sapiens; for inhibition at 10 µM: MDA-MB-231/ATCC (Breast cancer), read-out: GI%
How it was run: as §1

NCI-H460 = settings: Homo sapiens; for inhibition at 10 µM: NCI-H460 (Non-small cell lung cancer), read-out: GI%
How it was run: as §1

NCI-H23 = settings: Homo sapiens; for inhibition at 10 µM: NCI-H23 (Non-small cell lung cancer), read-out: GI%
How it was run: as §1

SF-268 = settings: Homo sapiens; for inhibition at 10 µM: SF-268 (CNS cancer), read-out: GI%
How it was run: as §1

NCI-H522 = settings: Homo sapiens; for inhibition at 10 µM: NCI-H522 (Non-small cell lung cancer), read-out: GI%
How it was run: as §1

OVCAR-3 = settings: Homo sapiens; for inhibition at 10 µM: OVCAR-3 (Ovarian cancer), read-out: GI%
How it was run: as §1

SK-MEL-28 = settings: Homo sapiens; for inhibition at 10 µM: SK-MEL-28 (Melanoma), read-out: GI%
How it was run: as §1

U251 = settings: Homo sapiens, U-251; for inhibition at 10 µM: U251 (CNS cancer), read-out: GI%
How it was run: as §1

HOP-92 = settings: Homo sapiens; HOP-92 (Non-small cell lung cancer), 10 µM; read-out: GI%
How it was run: as §1

KM12 = settings: Homo sapiens; for inhibition at 10 µM: KM12 (Colon cancer), read-out: GI%
How it was run: as §1

## COc1cccc(C=NNC(=O)c2ccc3[nH]c(-c4ccc(Cl)cc4)nc3c2)c1 [8q, 2-(4-Chlorophenyl)-N'-(3-methoxybenzylidene)-1H-benzo[d]imidazole-5-carbohydrazide]
NCI/ADR-RES
  inhibition at 10 µM: 23%
NCI/ADR-RES; NCI/ADR-RES, Ovarian cancer, five-dose
  GI50: 94.8 µM
HCT-15
  inhibition at 10 µM: 63%
HCT-15; HCT-15, Colon cancer, five-dose
  GI50: 5.52 µM
SF-295
  inhibition at 10 µM: > 100%
SF-295; SF-295, CNS cancer, five-dose
  GI50: 2170 nM
MDA-MB-435
  inhibition at 10 µM: 98.9%
MDA-MB-435; MDA-MB-435, Melanoma, five-dose
  GI50: 3.9 µM
HT29
  inhibition at 10 µM: > 100%
HT29; HT29, Colon cancer, five-dose
  GI50: 2380 nM
CCRF-CEM
  inhibition at 10 µM: 47%
CCRF-CEM; CCRF-CEM, Leukemia, five-dose
  GI50: 1950 nM
SNB-75
  inhibition at 10 µM: > 100%
SNB-75; SNB-75, CNS cancer, five-dose
  GI50: 5.69 µM
SN12C; SN12C, Renal cancer, five-dose
  GI50: 2220 nM
SK-OV-3; SK-OV-3 (Ovarian cancer), 10 µM, read-out: GI%
  inhibition at 10 µM: > 100%
SK-OV-3; SK-OV-3, Ovarian cancer, five-dose
  GI50: 2020 nM
NCI-H226
  inhibition at 10 µM: > 100%
NCI-H226; NCI-H226, Non-small cell lung cancer, five-dose
  GI50: 2570 nM
HOP-62; HOP-62 (Non-small cell lung cancer), 10 µM, read-out: GI%
  inhibition at 10 µM: > 100%
HOP-62; HOP-62, Non-small cell lung cancer, five-dose
  GI50: 1920 nM
RXF 393
  inhibition at 10 µM: > 100%
RXF 393; RXF 393, Renal cancer, five-dose
  GI50: 2060 nM
SK-MEL-5
  inhibition at 10 µM: > 100%
SK-MEL-5; SK-MEL-5, Melanoma, five-dose
  GI50: 4.9 µM
IGROV1
  inhibition at 10 µM: > 100%
IGROV1; IGROV1, Ovarian cancer, five-dose
  GI50: 3.01 µM
PC-3
  inhibition at 10 µM: > 100%
A498
  inhibition at 10 µM: > 100%
A498; A498, Renal cancer, five-dose
  GI50: 15.3 µM
MDA-MB-231/ATCC
  inhibition at 10 µM: > 100%
MDA-MB-231/ATCC; MDA-MB-231/ATCC, Breast cancer, five-dose
  GI50: 1890 nM
NCI-H460
  inhibition at 10 µM: > 100%
NCI-H460; NCI-H460, Non-small cell lung cancer, five-dose
  GI50: 3.34 µM
NCI-H23
  inhibition at 10 µM: > 100%
NCI-H23; NCI-H23, Non-small cell lung cancer, five-dose
  GI50: 2200 nM
SF-268
  inhibition at 10 µM: > 100%
SF-268; SF-268, CNS cancer, five-dose
  GI50: 2180 nM
NCI-H522
  inhibition at 10 µM: > 100%
NCI-H522; NCI-H522, Non-small cell lung cancer, five-dose
  GI50: 2260 nM
OVCAR-3
  inhibition at 10 µM: > 100%
OVCAR-3; OVCAR-3, Ovarian cancer, five-dose
  GI50: 3.24 µM
SK-MEL-28
  inhibition at 10 µM: > 100%
SK-MEL-28; SK-MEL-28, Melanoma, five-dose
  GI50: 2150 nM
U251
  inhibition at 10 µM: > 100%
U251; U251, CNS cancer, five-dose
  GI50: 2030 nM
HOP-92
  inhibition at 10 µM: > 100%
KM12
  inhibition at 10 µM: > 100%
KM12; KM12, Colon cancer, five-dose
  GI50: 4.42 µM

## COc1ccc(OC)c(C=NNC(=O)c2ccc3[nH]c(-c4ccccc4)nc3c2)c1 [8f, N'-(2,5-Dimethoxybenzylidene)-2-phenyl-1H-benzo[d]imidazole-5-carbohydrazide]
NCI/ADR-RES
  inhibition at 10 µM: 24.5%
HCT-15
  inhibition at 10 µM: 65.2%
SF-295
  inhibition at 10 µM: 31.4%
MDA-MB-435
  inhibition at 10 µM: 73.7%
HT29
  inhibition at 10 µM: 14.7%
CCRF-CEM
  inhibition at 10 µM: 80.5%
SNB-75
  inhibition at 10 µM: < 5%
SN12C; SN12C (Renal cancer), 10 µM, read-out: GI%
  inhibition at 10 µM: 35.2%
NCI-H226
  inhibition at 10 µM: 49.5%
RXF 393
  inhibition at 10 µM: 50%
SK-MEL-5
  inhibition at 10 µM: 67.8%
IGROV1
  inhibition at 10 µM: 11%
PC-3
  inhibition at 10 µM: 55.5%
A498
  inhibition at 10 µM: < 5%
MDA-MB-231/ATCC
  inhibition at 10 µM: 38%
NCI-H460
  inhibition at 10 µM: 15.8%
NCI-H23
  inhibition at 10 µM: 46.7%
SF-268
  inhibition at 10 µM: 36.6%
NCI-H522
  inhibition at 10 µM: 37.8%
OVCAR-3
  inhibition at 10 µM: 12.5%
SK-MEL-28
  inhibition at 10 µM: 29.1%
U251
  inhibition at 10 µM: 20.7%
HOP-92
  inhibition at 10 µM: 7.1%
KM12
  inhibition at 10 µM: 30.5%
